From patent US9464077B2, “Nitrogen-containing aromatic heterocyclic compound” (Astellas Pharma Inc., priority 2012, dated 2016)

Tests used:
[1] = test system: FGFR3-TACC3_v1 (N-FLAG) fusion polypeptide; experiment: In vitro kinase activity inhibition (HTRF KinEASE-TK); format: biochemical, human; settings: 100 μM ATP
[2] = target: human recombinant FGFR3 (Homo sapiens, UniProt P22607); experiment: FGFR3 enzyme assay (LabChip EZ Reader)
Protocol: (§3) The compound was diluted with a solution of dimethyl sulfoxide (DMSO) (10-fold common ratio, 4 portions) before dilution with a reaction buffer (100 mM HEPES (pH7.5), 0.003% Brij-35, 0.004% Tween 20, 0.5 mM DTT, and 10 mM MgCl2) so that the final DMSO concentration was 2%. To 4 μL of the compound solution in a 384-well plate, 2 μL each of FGFR1 enzyme (2 or 3 ng/μL), FGFR2 enzyme (2 ng/μL), or FGFR3 enzyme (6 ng/μL) which were diluted with the reaction buffer was added. […] After the reaction was stopped, the reaction mixture was measured with a LabChip EZ Reader. The IC50 values were calculated by non-linear regression based on the inhibition rates obtained.

[3] = test system: bladder cancer patient-derived cell line RT4; experiment: Anchorage-independent cell growth inhibition, spheroid plate; format: cell-based; settings: Homo sapiens, 96 h, 4 days, read-out: growth inhibition rate RT4
[4] = test system: UM-UC-14 (FGFR3_S249C-positive cells, bladder cancer); experiment: Antitumor test on UM-UC-14 subcutaneous xenograft; format: in vivo, nude mice; settings: oral, 1 mg/kg/day, once a day, tumor volume at Day 11 vs Day 1
Protocol: 3×10^6 UM-UC-14 cells per 0.1 mL (PBS+matrigel, 1:1) were inoculated subcutaneously into the right flank of nude mice (CAnN, Cg-Foxn1nu/CrlCrlj (nu/nu), male, 4- to 5-week-old), and when their tumor size reached about 250 mm^3, drug administration was started (Day 1). The drug was administered once a day and the tumor size was measured with a caliper and the body weight was also measured every two or three days. The antitumor effect was finally determined based on the tumor volume (mm^3; minor axis (mm)×minor axis (mm)×major axis (mm)/2) at Day 11 (n=3-5). To the control group, 0.5% MC (methyl cellulose) was administered. […] “% regression” indicates what percentage of regression could be achieved compared with the tumor volume at Day 1. Here, the tumor volume at Day 1 means tumor volume immediately before drug administration.

[5] = target: human recombinant FGFR1 (Homo sapiens, UniProt P11362); experiment: FGFR1 enzyme assay (LabChip EZ Reader)
Protocol: as §3

[6] = test system: FGFR3-TACC3_v2 (N-FLAG) fusion polypeptide; experiment: In vitro kinase activity inhibition (HTRF KinEASE-TK); format: biochemical, human; settings: 100 μM ATP
[7] = test system: bladder cancer patient-derived cell line RT-112; experiment: Anchorage-independent cell growth inhibition, spheroid plate; format: cell-based; settings: Homo sapiens, RT-112, 96 h, 4 days, read-out: growth inhibition rate RT-112
[8] = test system: FGFR3_S249C/NIH3T3 cells; experiment: Growth assay of cells with forced expression of mutant FGFR3; format: cell-based; settings: Mus musculus, NIH3T3, 120 h; 5 days after addition, CellTiter-Glo; read-out: IC50 (growth inhibition)
Protocol: FGFR3_S249C/NIH3T3 cells were added to a 96-well spheroid plate (U bottom) at a concentration of 3000 cells/well/90 μL, and the compound solution (10 μL) was added thereto on the next day (final DMSO concentration: 0.1%). The compound solution was prepared by serially diluting the compound with DMSO at a 3-fold common ratio (9 portions and DMSO only) from the maximum concentration of 10 mM and then diluted 100-fold with a culture medium (D-MEM, 10% FBS). 5 days after the addition of the compound, the growth inhibition caused by the compound was evaluated by Promega (G7573) CellTiter-Glo™ Luminescent Cell Viability Assay.

[9] = test system: FGFR3-TACC3_v2-expressing NIH3T3 cells; experiment: Anchorage-independent cell growth inhibition, spheroid plate; format: cell-based; settings: Mus musculus, NIH3T3, 96 h, 4 days, read-out: growth inhibition rate v2
Text: (§1) Measurement for anchorage-independent cell growth (colony method, etc.) is known to be a system for investigating the anticancer action (pharmacological effect) of compounds (Clinical Oncology, second edition, Cancer and Chemotherapy Publishers Inc.). As a method for measuring the non-adhesive growth of cells, there is the following method using a spheroid plate as referred to above in place of the colony method.
(§2) In a 96-well spheroid plate (Sumilon Celltight Spheroid 96U; Sumitomo Bakelite), FGFR3-TACC3_v1-expressing NIH3T3 cells, FGFR3-TACC3_v2-expressing NIH3T3 cells, FGFR3-TACC3_v3-expressing NIH3T3 cells, and FGFR3-TACC3_v4-expressing NIH3T3 cells were each seeded at 1×10^3 cells per well in D-MEM media (Invitrogen) containing 10% fetal bovine serum. […] A well supplemented with only medium was also prepared for a positive control. Culturing was performed overnight in the presence of 5% CO2 at 37° C. followed by addition of test compounds (final concentrations: 100 nM, 10 nM, and 1 nM). As a negative control, DMSO used as a solvent for the compounds was added at the same concentration (0.1%) as in the case of addition of the compounds. Then, culturing was performed in the presence of 5% CO2 at 37° C. for 4 days, and a cell counting reagent (CellTiter-Glo™ Luminescent Cell Viability Assay; Promega) was added and the resulting mixture was stirred for 20 minutes followed by measurement with a luminometer.

[10] = test system: FGFR3-TACC3_v4-expressing NIH3T3 cells; experiment: as above; format: cell-based; settings: Mus musculus, NIH3T3, 96 h, 4 days, read-out: growth inhibition rate v4
Text: as §1, §2

[11] = test system: FGFR3-TACC3_v1-expressing NIH3T3 cells; experiment: as above; format: cell-based; settings: Mus musculus, NIH3T3, 96 h, 4 days, read-out: growth inhibition rate v1
Text: as §1, §2

[12] = test system: FGFR3-TACC3_v3-expressing NIH3T3 cells; experiment: as above; format: cell-based; settings: Mus musculus, NIH3T3, 96 h, 4 days, read-out: growth inhibition rate v3
Text: as §1, §2

human recombinant FGFR1, sequence (P11362 22-822): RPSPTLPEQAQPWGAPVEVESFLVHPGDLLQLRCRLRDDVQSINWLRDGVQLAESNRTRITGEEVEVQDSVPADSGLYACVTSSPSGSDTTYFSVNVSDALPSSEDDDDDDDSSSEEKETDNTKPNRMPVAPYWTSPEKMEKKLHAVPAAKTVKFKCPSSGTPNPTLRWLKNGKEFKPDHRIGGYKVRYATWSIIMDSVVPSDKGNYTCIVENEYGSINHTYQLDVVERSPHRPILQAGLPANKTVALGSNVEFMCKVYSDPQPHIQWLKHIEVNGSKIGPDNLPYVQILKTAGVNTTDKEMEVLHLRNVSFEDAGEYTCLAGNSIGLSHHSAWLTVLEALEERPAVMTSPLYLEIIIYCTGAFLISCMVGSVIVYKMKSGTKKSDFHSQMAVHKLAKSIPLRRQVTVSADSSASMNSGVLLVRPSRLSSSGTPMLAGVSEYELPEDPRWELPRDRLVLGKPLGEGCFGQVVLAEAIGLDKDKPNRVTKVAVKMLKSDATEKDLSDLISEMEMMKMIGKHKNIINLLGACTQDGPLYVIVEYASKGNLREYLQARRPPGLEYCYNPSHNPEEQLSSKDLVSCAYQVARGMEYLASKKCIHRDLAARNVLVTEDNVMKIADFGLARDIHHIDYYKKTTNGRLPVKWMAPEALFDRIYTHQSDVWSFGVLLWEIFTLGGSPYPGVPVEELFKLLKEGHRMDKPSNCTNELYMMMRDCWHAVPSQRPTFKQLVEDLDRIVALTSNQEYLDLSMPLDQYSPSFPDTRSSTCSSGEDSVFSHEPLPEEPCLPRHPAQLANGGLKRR
human recombinant FGFR3, sequence (P22607 23-806): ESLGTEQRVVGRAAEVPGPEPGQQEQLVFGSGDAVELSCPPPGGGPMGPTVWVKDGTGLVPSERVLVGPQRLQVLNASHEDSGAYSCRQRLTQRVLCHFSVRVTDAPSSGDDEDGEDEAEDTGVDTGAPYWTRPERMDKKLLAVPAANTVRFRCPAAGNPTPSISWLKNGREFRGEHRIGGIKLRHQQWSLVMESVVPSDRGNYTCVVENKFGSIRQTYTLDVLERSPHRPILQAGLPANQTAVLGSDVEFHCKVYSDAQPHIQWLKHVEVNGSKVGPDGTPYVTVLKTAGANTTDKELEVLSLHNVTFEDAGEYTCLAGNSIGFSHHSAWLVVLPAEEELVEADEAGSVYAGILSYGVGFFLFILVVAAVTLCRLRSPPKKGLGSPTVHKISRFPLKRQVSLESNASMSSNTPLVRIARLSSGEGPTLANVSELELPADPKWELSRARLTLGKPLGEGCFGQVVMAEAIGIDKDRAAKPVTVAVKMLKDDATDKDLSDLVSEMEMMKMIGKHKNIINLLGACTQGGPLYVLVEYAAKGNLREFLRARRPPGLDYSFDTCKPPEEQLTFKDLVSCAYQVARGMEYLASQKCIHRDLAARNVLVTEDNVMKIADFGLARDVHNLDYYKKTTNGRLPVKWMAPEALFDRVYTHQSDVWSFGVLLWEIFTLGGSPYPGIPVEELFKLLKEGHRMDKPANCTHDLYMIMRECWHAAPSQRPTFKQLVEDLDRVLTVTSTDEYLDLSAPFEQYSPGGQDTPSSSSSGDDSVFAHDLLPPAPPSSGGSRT

For `COc1cc(OC)c(F)c(COc2cnc(Nc3ccc(N4CCC(NCCO)CC4)cc3)nc2)c1F` [Example 299], the “rate of inhibiting kinase activity v1” value ([1]; 1 nM) was 35%, the “rate of inhibiting kinase activity v1” value ([1]; 10 nM) was 84% and the “rate of inhibiting kinase activity v1” value ([1]; 100 nM) was 94%. For the same compound, the IC50 [2] was 2 nM, the inhibition at 0.001 µM ([3]; 1 nM) was 8% and the inhibition at 0.01 µM ([3]; 10 nM) was 45%. The inhibition at 0.1 µM ([3]; 100 nM) was 63%, the “Antitumor Activity, % regression” value [4] was 15% and the IC50 [5] was < 1 nM. The “rate of inhibiting kinase activity v2” value ([6]; 1 nM) was 20%, the “rate of inhibiting kinase activity v2” value ([6]; 10 nM) was 77% and the “rate of inhibiting kinase activity v2” value ([6]; 100 nM) was 95%. For the same compound, the inhibition at 0.001 µM ([7]; 1 nM) was 31%, the inhibition at 0.01 µM ([7]; 10 nM) was 84% and the inhibition at 0.1 µM ([7]; 100 nM) was 89%. The IC50 [8] was 10 nM, the inhibition at 0.001 µM ([9]; 1 nM) was 4% and the inhibition at 0.01 µM ([9]; 10 nM) was 63%. It also gave an inhibition at 0.1 µM ([9]; 100 nM) of 91%, an inhibition at 0.001 µM ([10]; 1 nM) of 16% and an inhibition at 0.01 µM ([10]; 10 nM) of 82%. The inhibition at 0.1 µM ([10]; 100 nM) was 90%, the inhibition at 0.001 µM ([11]; 1 nM) was 9% and the inhibition at 0.01 µM ([11]; 10 nM) was 77%. The inhibition at 0.1 µM ([11]; 100 nM) was 92%, the inhibition at 0.001 µM ([12]; 1 nM) was 5% and the inhibition at 0.01 µM ([12]; 10 nM) was 51%. The inhibition at 0.1 µM ([12]; 100 nM) was 89%.
